Measurements: patent US20060240021A1, “Mammalian genes involved in rapamycin resistance and tumorgenesis: rapr7 genes” (priority 2002, published 2006)

System: N2a cells
Experiment: MTT proliferation assay, rapamycin mediated cell growth inhibition of N2a cells
Type: cell-based, mouse
Conditions: FIG. 7
Text: FIG. 7 illustrates sensitivity of the N2a cell line to the growth inhibitory effect of rapamycin.
In a preferred embodiment, an MTT proliferation assay (see, e.g., van de Loosdrechet, et al., 1994, J. Immunol. Methods 174: 311-320; Ohno et al., 1991, J. Immunol. Methods 145:199-203; Ferrari et al., 1990, J. Immunol. Methods 131: 165-172; Alley et al., 1988, Cancer Res. 48: 589-601; Carmichael et al., 1987, Cancer Res. 47:936-942; Gerlier et al., 1986, J. Immunol. Methods 65:55-63; Mosmann, 1983, J. Immunological Methods 65:55-63) is used to screen for a candidate agent in conjunction with rapamycin to inhibit the growth of rapamycin resistant cells. The cells are treated with chosen concentrations of the candidate agent and rapamycin for 4 to 72 hours. The cells are then incubated with a suitable amount of 3-(4,5-dimethylthiazol-2-yl)-2,5-diphenyltetrazolium bromide (MTT) for 1-8 hours such that viable cells convert MTT into an intracellular deposit of insoluble formazan. After removing the excess MTT contained in the supernatant, a suitable MTT solvent, e.g., a DMSO solution, is added to dissolved the formazan. The concentration of […], which is proportional to the number of viable cells, is then measured by determining the optical density at […]. […]

## CO[C@H]1C[C@@H]2CC[C@@H](C)[C@@](O)(O2)C(=O)C(=O)N2CCCC[C@H]2C(=O)O[C@H]([C@H](C)C[C@@H]2CC[C@@H](O)[C@H](OC)C2)CC(=O)[C@H](C)/C=C(\C)[C@@H](O)[C@@H](OC)C(=O)[C@H](C)C[C@H](C)/C=C/C=C/C=C/1C [rapamycin, 9,10,12,13,14,21,22,23,24,25,26,27,32,33,34,34a-hexadecahydro-9,27-dihydroxy-3-[2-(4-hydroxy-3-methoxycyclohexyl)-1-methylethyl]-10,21-dimethoxy-6,8,12,14,20,26-hexamethyl-23,27-epoxy-3H-pyrido[2,1-c][1,4]oxaazacyclohentricontine-1,5,11,28,29(4H,6H,31H)-pentone]
N2a cell line
  rapamycin concentration at which the growth of N2a cells is completely inhibited: ≥ 1 µM
Mouse neuroblastoma N2a cells, MTT assay
  rapamycin concentration at which N2a cells are sensitive to cell growth inhibition: 10 nM
